US20210101928A1 (Sage Therapeutics, Inc., priority 2017, published 2021)
pIC50: −log10 of the molar value. Where two headings read alike, the source gives them in different places.

Target: GABAA receptor ([35S]-TBPS binding, rat brain cortical membranes)
Assay: Steroid inhibition of [35S]-TBPS binding
Settings: in the presence of 5 mM GABA
Description: [^35S]-t-Butylbicyclophosphorothionate (TBPS) binding assays using rat brain cortical membranes in the presence of 5 mM GABA has been described (Gee et al, J. Pharmacol. Exp. Ther. 1987, 241, 346-353; Hawkinson et al, Mol. Pharmacol. 1994, 46, 977-985; Lewin, A. H et al., Mol. Pharmacol. 1989, 35, 189-194).
Briefly, cortices are rapidly removed following decapitation of carbon dioxide-anesthetized Sprague-Dawley rats (200-250 g). The cortices are homogenized in 10 volumes of ice-cold 0.32 M sucrose using a glass/teflon homogenizer and centrifuged at 1500×g for 10 min at 4° C. The resultant supernatants are centrifuged at 10,000×g for 20 min at 4° C. to obtain the P2 pellets. The P2 pellets are resuspended in 200 mM NaCl/50 mM Na—K phosphate pH 7.4 buffer and centrifuged at 10,000×g for 10 min at 4° C. This washing procedure is repeated twice and the pellets are resuspended in 10 volumes of buffer. Aliquots ([…]) of the membrane suspensions are incubated with 3 nM [^35S]-TBPS and […] aliquots of test drug dissolved in dimethyl sulfoxide (DMSO) (final 0.5%) in the presence of 5 mM GABA. The incubation is brought to a final volume of 1.0 mL with buffer. Nonspecific binding is determined in the presence of […] and ranged from 15 to 25%. Following a 90 min incubation at room temp, the assays are terminated by filtration through glass fiber filters (Schleicher and Schuell No. 32) using a cell harvester (Brandel) and rinsed three times with ice-cold buffer. Filter bound radioactivity is measured by liquid scintillation spectrometry. Non-linear curve fitting of the overall data for each drug averaged for each concentration is done using Prism (GraphPad). […] The concentration of test compound producing 50% inhibition (IC50) of specific binding and the maximal extent of inhibition (Imax) are determined for the individual experiments with the same model used for the overall data and then the means±SEM.s of the individual experiments are calculated.
Various compounds are or can be screened to determine their potential as modulators of [^35S]-TBPS binding in vitro. These assays are or can be performed in accordance with the above.

[1] = Table II-2, 3 nM [35S]-TBPS, read-out: TBPS IC50
[2] = Table III-1 (biological data), 3 nM [35S]-TBPS, read-out: TBPS IC50
[3] = Table I-1, 3 nM [35S]-TBPS, read-out: TBPS binding IC50

| SMILES | pIC50 [1] | other results |
| --- | --- | --- |
| CCOC[C@@]1(O)CC[C@@]2(CC)[C@H](CC[C@H]3[C@@H]4CC[C@H](C(=O)N5CCCC[C@@H]5c5ccc(F)cc5)[C@@]4(C)CC[C@@H]32)C1 [II-50, ((3R,5R,8S,9S,10S,13S,14S,17S)-3-(ethoxymethyl)-10-ethyl-3-hydroxy-13-methylhexadecahydro-1H-cyclopenta[a]phenanthren-17-yl)((R)-2-(4-fluorophenyl)piperidin-1-yl)methanone] | 6.00 to 7.00 | – |
| COC[C@]12CC[C@H]3[C@@H](CC[C@@H]4C[C@](C)(O)CC[C@@H]43)[C@@H]1CC[C@@H]2C(C)=O [III-C11, 1-((3R,5R,8R,9R,10S,13R,14S,17S)-3-hydroxy-13-(methoxymethyl)-3-methylhexadecahydro-1H-cyclopenta[a]phenanthren-17-yl)ethan-1-one] | – | pIC50 [2]: 7.00 to 8.00 |
| COC[C@]12CC[C@H]3[C@@H](CC[C@@H]4C[C@](C)(O)CC[C@@H]43)[C@@H]1CC[C@@H]2C(=O)Cn1cc(C#N)cn1 [III-C13, 1-(2-((3R,5R,8R,9R,10S,13R,14S,17S)-3-hydroxy-13-(methoxymethyl)-3-methylhexadecahydro-1H-cyclopenta[a]phenanthren-17-yl)-2-oxoethyl)-1H-pyrazole-4-carbonitrile] | – | pIC50 [2]: > 8.00 |
| CC[C@]12CC[C@@](C)(O)C[C@H]1CC[C@H]1[C@@H]3CC[C@H](C(N)=O)[C@@]3(C)CC[C@@H]12 [II-22, (3R,5R,8S,9S,10S,13S,14S,17S)-10-ethyl-3-hydroxy-3,13-dimethylhexadecahydro-1H-cyclopenta[a]phenanthrene-17-carboxamide] | 6.00 to 7.00 | – |
| CCOC[C@@]1(O)CC[C@@]2(CC)[C@H](CC[C@H]3[C@@H]4CC[C@H](C(=O)Cn5nccn5)[C@@]4(C)CC[C@@H]32)C1 [II-75, 1-((3R,5R,8S,9S,10S,13S,14S,17S)-3-(ethoxymethyl)-10-ethyl-3-hydroxy-13-methylhexadecahydro-1H-cyclopenta[a]phenanthren-17-yl)-2-(2H-1,2,3-triazole-2-yl)ethan-1-one] | 7.00 to 8.00 | – |
| CO[C@H](C)[C@]12CC[C@@](C)(O)C[C@H]1CC[C@H]1[C@@H]3CC[C@H](C(=O)Cn4nnnc4C)[C@@]3(C)CC[C@@H]12 [II-E13, 1-((3R,5R,8S,9S,10R,13S,14S,17S)-3-hydroxy-10-((R)-1-methoxyethyl)-3,13-dimethylhexadecahydro-1H-cyclopenta[a]phenanthren-17-yl)-2-(5-methyl-1H-tetrazol-1-yl)ethan-1-one] | 6.00 to 7.00 | – |
| CC[C@]12CC[C@](O)(COC)C[C@@H]1CC[C@H]1[C@@H]3CC[C@H](C(=O)Nc4ccc(C#N)cc4C)[C@@]3(C)CC[C@@H]12 [II-E6, (3R,5S,8S,9S,10S,13S,14S,17S)-N-(4-cyano-2-methylphenyl)-10-ethyl-3-hydroxy-3-(methoxymethyl)-13-methylhexadecahydro-1H-cyclopenta[a]phenanthrene-17-carboxamide] | > 8.00 | – |
| C[C@@]1(O)CC[C@]2(C)[C@H]3CC[C@]4(C)[C@@H](C(=O)Cn5cc(C#N)cn5)CC[C@H]4[C@@H]3CC[C@]2(C)C1 [I-A4, 1-(2-((3R,5R,8S,9S,10R,13S,14S,17S)-3-hydroxy-3,5,10,13-tetramethylhexadecahydro-1H-cyclopenta[a]phenanthren-17-yl)-2-oxoethyl)-1H-pyrazole-4-carbonitrile] | – | pIC50 [3]: 6.00 to 7.00 |
| CC[C@]12CC[C@@](C)(O)C[C@H]1CC[C@H]1[C@@H]3CC[C@H](C(=O)Cn4nccn4)[C@@]3(C)CC[C@@H]12 [II-13, 1-((3R,5R,8S,9S,10S,13S,14S,17S)-10-ethyl-3-hydroxy-3,13-dimethylhexadecahydro-1H-cyclopenta[a]phenanthren-17-yl)-2-(2H-1,2,3-triazol-2-yl)ethan-1-one] | > 8.00 | – |
| CC[C@]12CC[C@@](C)(O)C[C@@H]1CC[C@H]1[C@@H]3CC[C@H](C(=O)Cn4cccn4)[C@@]3(C)CC[C@@H]12 [II-A7, 1-((3R,5S,8S,9S,10S,13S,14S,17S)-10-ethyl-3-hydroxy-3,13-dimethylhexadecahydro-1H-cyclopenta [a]phenanthren-17-yl)-2-(1H-pyrazol-1-yl)ethan-1-one] | 7.00 to 8.00 | – |
| CC[C@H]1CCCCN1C(=O)[C@H]1CC[C@H]2[C@@H]3CC[C@@H]4C[C@](C)(O)CC[C@]4(CC)[C@H]3CC[C@]12C [II-21, ((3R,5R,8S,9S,10S,13S,14S,17S)-10-ethyl-3-hydroxy-3,13-dimethylhexadecahydro-cyclopenta[a]phenanthren-17-yl)((S)-2-ethylpiperidin-1-yl)methanone] | 7.00 to 8.00 | – |
| CC[C@]12CC[C@H]3[C@@H](CC[C@@H]4C[C@@](O)(COC)CC[C@@H]43)[C@@H]1CC[C@@H]2C(C)=O [III-B15, 1-((3R,5R,8R,9R,10S,13S,14S,17S)-13-ethyl-3-hydroxy-3-(methoxymethyl)hexadecahydro-1H-cyclopenta[a]phenanthren-17-yl)ethan-1-one] | – | pIC50 [2]: 7.00 to 8.00 |
| CC[C@]12CC[C@H]3[C@@H](CC[C@H]4C[C@@](O)(COC)CC[C@@H]43)[C@@H]1CC[C@@H]2C(=O)Cn1nnnc1C [III-A23, 1-((3R,5S,8R,9R,10S,13S,14S,17S)-13-ethyl-3-hydroxy-3-(methoxymethyl)hexadecahydro-1H-cyclopenta[a]phenanthren-17-yl)-2-(5-methyl-1H-tetrazol-1-yl)ethan-1-one] | – | pIC50 [2]: 6.00 to 7.00 |
| CCOC[C@@]1(O)CC[C@@]2(CC)[C@H](CC[C@H]3[C@@H]4CC[C@H](C(=O)Nc5ccc(C#N)cc5C)[C@@]4(C)CC[C@@H]32)C1 [II-43, (3R,5R,8S,9S,10S,13S,14S,17S)-N-(4-cyano-2-methylphenyl)-3-(ethoxymethyl)-10-ethyl-3-hydroxy-13-methylhexadecahydro-1H-cyclopenta[a]phenanthrene-17-carboxamide] | > 8.00 | – |
| CC[C@]12CC[C@@](C)(O)C[C@H]1CC[C@H]1[C@@H]3CC[C@H](C(=O)N4CCCC[C@@H]4C)[C@@]3(C)CC[C@@H]12 [II-20, ((3R,5R,8S,9S,10S,13S,14S,17S)-10-ethyl-3-hydroxy-3,13-dimethylhexadecahydro-1H-cyclopenta[a]phenanthren-ren-17-yl)((S)-2-methylpiperidin-1-yl)methanone] | 7.00 to 8.00 | – |
| C[C@@]1(O)CC[C@]2(C)[C@H]3CC[C@]4(C)[C@@H](C(=O)CNc5ccccc5)CC[C@H]4[C@@H]3CC[C@]2(C)C1 [I-A3, 1-((3R,5R,8S,9S,10R,13S,14S,17S)-3-hydroxy-3,5,10,13-tetramethylhexadecahydro-1H-cyclopenta [a]phenanthren-17-yl)-2-(phenylamino)ethan-1-one] | – | pIC50 [3]: 6.00 to 7.00 |
| CC[C@]12CC[C@@](C)(O)C[C@@H]1CC[C@H]1[C@@H]3CC[C@H](C(=O)CN4CCOCC4)[C@@]3(C)CC[C@@H]12 [II-A9, 1-((3R,5S,8S,9S,10S,13S,14S,17S)-10-ethyl-3-hydroxy-3,13-dimethylhexadecahydro-1H-cyclopenta[a]phenanthren-17-yl)-2-morpholinoethan-1-one] | 7.00 to 8.00 | – |
